Consider one molecule from patent US20230364049A1, “COMBINATION OF P2Y6 INHIBITORS AND IMMUNE CHECKPOINT INHIBITORS” (VIB VZW, priority 2020, published 2023).

Data set [1] has as its system murine bone marrow derived macrophages (BMDMs). The data set can be described thus: BMDM migration assay (Transwell, UDP as chemoattractant). As to conditions: 10 μM MRS2578, 100 μM UDP in bottom chamber, 6 h, FIG. 4. Format: cell-based. The method, then: In the macrophage migration assays, 1×10^5 murine BMDMs were seeded on […] polycarbonate membranes (Transwell; Costar) with or without 10 μM MRS2578. The bottom chambers contained DMEM with or without 100 μM UDP, 100 μM Uridine (Sigma-Aldrich) or 100 μM Cytidine (Sigma-Aldrich), or alternatively, conditioned media from NT or CDA KD cells.
After 6 h incubation, the cells were removed from the top of each membrane with a cotton stick and migrated cells were fixed in 4% PFA, washed in PBS, stained with crystal violet (2.5 g/L) and Hoechst, and mounted on glass slides with ProLong Gold mounting medium without DAPI. Images were acquired with Olympus BX41 microscope and CellSense imaging software.

A short description of data set [2]: Tolerability / body weight of treated Panc02 tumor-bearing mice. It counts as in vivo. As to conditions: MRS2578 3 mg/kg/day i.p.; FIG. 7. On the procedure:
(§1) Mice were randomized and treated, at indicated time points, intraperitoneally (i.p.) with 10 mg/kg of α-PD-1 (BioXcell) or control IgG from rat serum (Sigma-Aldrich), 3 mg/kg/day MRS2578 (Selleck Chemicals) or control vehicle. At the end stage, tumor weight was measured.
(§2) Mice were monitored and weighed continuously during the experiments. Mice showing symptoms of illness, that lost 20% of initial body weight, peritoneal leakage or with ulcerated tumors were sacrificed and excluded from the experiments. At the end stage, tumor weight was registered and samples were collected for histological examination, metabolomics and/or FACS/sorter analysis.

Another data set deals with Panc02 tumors. The data set can be described thus: Subcutaneously implanted Panc02 tumor model, with FACS analysis of tumors. Format: in vivo, mice. On the procedure:
4×10^6 Panc02 cells were injected subcutaneously (s.c.) in the right flank of the mouse in a final suspension of 200 μI PBS. Tumor volumes were measured at least three times per week with a calliper and calculated using the formula: Volume (mm^3): ((Width(mm))^2×Length(mm))/2. 0.1×10^6 KPC1245 cells were injected orthotopically into the head of the pancreas in 20 μl of PBS.
as §1, §2
Tumor-bearing mice were sacrificed by cervical dislocation and perfused with saline to remove circulating immune cells. Tumors were harvested and minced in αMEM medium (Lonza) supplemented with 5% FBS, 1% Pen/Strep, 50 μM β-mercaptoethanol (Gibco), 5U/mL DNase I (Qiagen), 0.85 mg/mL Collagenase V (Collagenase from Clostridium histolyticum, Sigma-Aldrich), 1.25 mg/mL Collagenase D (Collagenase from Clostridium histolyticum, Roche) and 1 mg/mL Dispase II (Gibco) and incubated for 30 minutes at 37° C. The digested tissue was filtered using a 70 μm pore sized mesh strainer and cells were centrifuged 5 minutes at 300 xg. The samples were resuspended in Red Blood Cell Lysing Buffer Hybri-Max™ (Sigma-Aldrich) for 30 seconds, inactivated with FACS buffer (PBS containing 2% FBS and 2 mM EDTA) and centrifuged. The cell pellets were resuspended in FACS buffer and filtered with a 40 μm pore sized mesh strainer. Cells were resuspended in FACS buffer and for the intracellular measurement of interferon γ (IFN-γ) and granzyme B (GZMB), single-cell suspensions were culture in RPMI medium supplemented with 10% FBS, 1% glutamine, 1% Pen/Strep and stimulated with phorbol 12-myristate 13-acetate (PMA)/ionomycin Cell Stimulation Cocktail (eBioscience™, 1:500) in the presence of Brefeldin A (BioLegend®, 1:1000) or Monensin (eBioscience™, 1:1000) for 4 h at 37° C. Cells were then incubated for 15 minutes at 4° C. with Mouse BD Fc Block purified Rat Anti-Mouse CD16/CD32 mAb (BD Pharmingen™) and stained with the following antibodies for 30 minutes at 4° C.: Fixable viability dye (eFluor™ 506, eBioscience™), anti-CD45 (30-F11, APC-Cy7 or FITC, BioLegend®), anti-CD11b (M1/70, PerCP-Cy5.5, BioLegend®; eFluor™ 450, eBioscience™; or PE, BD Biosciences), anti-TCR-13 chain (H57-597, BV421, BD Biosciences), anti-CD4 (RM4-5, PE, BioLegend®), anti-CD8 (53-6.7, PE-Cy7, eBioscience™ or 53-6.7, APC-Cy7, BioLegend®), anti-CD69 (H1.2F3, APC, eBioscience™), anti-F4/80 (BM8, Alexa Fluor 488, eBioscience™; PerCP-Cy5.5, BioLegend®; or BV421, BioLegend®), anti-IFN-γ (XMG1.2, PE-Cy7, eBioscience™), anti-GZMB (GB11, Alexa Fluor 647, BioLegend®), anti-MHC-II (M5/114.15.2, APC, eBioscience™; or PerCP-eFluor 710, eBioscience™), anti-CD11c (N418, PE-Cy7, eBioscience™), anti-CD206 (MR5D3, Alexa Fluor 647, Bio-Rad), anti-Ly-6G (1A8, PE, BD Pharmingen™) anti-CD335 (NKp46) (29A1.4, APC, BioLegend®), anti-Foxp3 (FJK-16s, APC, eBioscience™) and anti-CD25 (PC61.5, PE-Cy7, eBioscience™). Cells were subsequently washed and resuspended in cold FACS buffer before FACS analysis or flow sorting by a FACS Verse or FACS Aria (BD Biosciences), respectively.

The mark [3] stands for this setting: Panc02 tumors, MRS2578 vs vehicle, FIG. 6.

The structures appear in SMILES notation.

As to `S=C=Nc1cccc(NC(=S)NCCCCNC(=S)Nc2cccc(N=C=S)c2)c1` [MRS2578, N,N-1,4-butanediylbis-N-(3-isothiocyanatophenyl) thiourea], in data set [1], the “Migration of BMDMs towards UDP” value is “abrogated”. Besides, the “Migration of BMDMs towards UDP” value in data set [1] (listed as MRS 2578) is “specifically inhibited”. Besides, the “Harmful effect on mice (evolution of body weight)” value in data set [2] is given as “no harmful effect”. In the data set on Panc02 tumors (MRS2578 3 mg/kg/day i.p. combined to α-PD-1 therapy (10 mg/kg i.p.), sc Panc02, FIG. 5), the Tumor volume entry is “decrease”. For the same molecule, the Tumor weight result in the data set on Panc02 tumors (MRS2578 3 mg/kg/day i.p. combined to α-PD-1 therapy (10 mg/kg i.p.), sc Panc02, end stage, FIG. 5) is reported as “decrease”. Further, in the data set on Panc02 tumors (Panc02 tumors, MRS2578), the “Infiltration of M2 polarized TAMs into Panc02 tumors” value is listed as “reduced infiltration” and the “Infiltration of tumor-associated macrophages (TAMs) into Panc02 tumors” value is recorded as “Reduced infiltration”. In the data set with Panc02 tumors (setting [3]), the “Activation of CD8+ T cells in the tumors (GZMB, FACS)” value is “more activated” and the “M2 polarization of macrophages (CD206 expression by FACS)” value is listed as “reduction of M2 polarization”.
